Results taken from ChEMBL document CHEMBL5291721, “A preclinical secondary pharmacology resource illuminates target-adverse drug reaction associations of marketed drugs” (Nat Commun, 2023).

How the values were obtained:
[1] = molecular target: Beta-1 adrenergic receptor (Homo sapiens, UniProt P08588); type: functional
[2] = molecular target: Neuronal acetylcholine receptor subunit alpha-4 (Homo sapiens, UniProt P43681)
[3] = molecular target: Cannabinoid receptor 1 (Homo sapiens, UniProt P21554)
[4] = molecular target: D(3) dopamine receptor (Homo sapiens, UniProt P35462)
[5] = molecular target: T1, Estrogen receptor (Homo sapiens, UniProt P03372)
T1 sequence (P03372 whole entry): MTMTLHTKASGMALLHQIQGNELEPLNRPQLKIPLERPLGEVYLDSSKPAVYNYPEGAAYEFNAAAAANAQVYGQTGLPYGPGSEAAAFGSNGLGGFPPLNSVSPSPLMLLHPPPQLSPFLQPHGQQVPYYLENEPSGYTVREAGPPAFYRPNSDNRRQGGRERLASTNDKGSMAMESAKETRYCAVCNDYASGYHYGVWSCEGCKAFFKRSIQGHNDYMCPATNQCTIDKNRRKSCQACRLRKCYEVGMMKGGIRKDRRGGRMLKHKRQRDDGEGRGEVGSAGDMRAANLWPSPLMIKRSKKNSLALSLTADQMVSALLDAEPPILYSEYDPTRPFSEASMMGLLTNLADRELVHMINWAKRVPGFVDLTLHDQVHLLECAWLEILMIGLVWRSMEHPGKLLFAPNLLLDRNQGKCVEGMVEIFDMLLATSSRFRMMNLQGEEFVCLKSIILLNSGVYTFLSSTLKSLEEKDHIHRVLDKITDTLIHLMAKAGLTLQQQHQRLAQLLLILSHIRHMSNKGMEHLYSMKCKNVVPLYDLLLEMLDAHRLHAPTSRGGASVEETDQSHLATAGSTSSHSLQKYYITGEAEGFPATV

[6] = molecular target: Gamma-aminobutyric acid receptor subunit alpha-1 (Rattus norvegicus, UniProt P62813)
[7] = molecular target: Growth hormone secretagogue receptor type 1 (Homo sapiens, UniProt Q92847)
[8] = molecular target: T2, 5-hydroxytryptamine receptor 2C (Homo sapiens, UniProt P28335)
T2 sequence (P28335 whole entry): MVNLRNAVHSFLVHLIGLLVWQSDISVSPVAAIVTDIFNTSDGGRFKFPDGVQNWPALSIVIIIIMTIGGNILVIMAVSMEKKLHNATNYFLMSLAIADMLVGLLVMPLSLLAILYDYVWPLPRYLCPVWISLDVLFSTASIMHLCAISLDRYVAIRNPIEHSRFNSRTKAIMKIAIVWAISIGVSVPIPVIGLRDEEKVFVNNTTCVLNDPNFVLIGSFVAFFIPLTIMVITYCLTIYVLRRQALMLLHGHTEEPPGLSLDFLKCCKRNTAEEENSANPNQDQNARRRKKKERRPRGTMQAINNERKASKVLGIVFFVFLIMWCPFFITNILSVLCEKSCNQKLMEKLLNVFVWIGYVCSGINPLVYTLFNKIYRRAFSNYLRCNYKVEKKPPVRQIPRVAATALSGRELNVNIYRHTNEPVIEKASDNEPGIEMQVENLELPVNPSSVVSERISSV

[9] = molecular target: Melanocortin receptor 3 (Homo sapiens, UniProt P41968)
[10] = molecular target: Melanocortin receptor 4 (Homo sapiens, UniProt P32245)
[11] = molecular target: Sodium-dependent dopamine transporter (Homo sapiens, UniProt Q01959)
[12] = molecular target: T3, Alpha-2A adrenergic receptor (Homo sapiens, UniProt P08913); type: functional, cell-based
T3 sequence (P08913 whole entry): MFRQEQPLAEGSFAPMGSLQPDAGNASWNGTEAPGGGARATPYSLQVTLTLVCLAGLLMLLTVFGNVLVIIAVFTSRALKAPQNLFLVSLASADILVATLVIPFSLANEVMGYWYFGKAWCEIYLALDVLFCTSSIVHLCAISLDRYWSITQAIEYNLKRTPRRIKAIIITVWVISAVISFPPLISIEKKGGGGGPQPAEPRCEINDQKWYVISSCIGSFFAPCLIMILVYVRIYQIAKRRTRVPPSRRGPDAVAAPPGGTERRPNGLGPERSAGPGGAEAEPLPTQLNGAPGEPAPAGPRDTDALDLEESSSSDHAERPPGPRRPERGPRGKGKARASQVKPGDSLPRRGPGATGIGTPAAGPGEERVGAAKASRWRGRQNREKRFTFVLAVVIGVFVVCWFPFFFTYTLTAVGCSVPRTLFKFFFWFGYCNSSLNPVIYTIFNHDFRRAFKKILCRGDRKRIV

[13] = molecular target: Vascular endothelial growth factor receptor 2 (Homo sapiens, UniProt P35968); type: functional
[14] = molecular target: T4, Prostaglandin G/H synthase 1 (Rattus norvegicus, UniProt Q63921); type: functional
T4 sequence (Q63921 whole entry): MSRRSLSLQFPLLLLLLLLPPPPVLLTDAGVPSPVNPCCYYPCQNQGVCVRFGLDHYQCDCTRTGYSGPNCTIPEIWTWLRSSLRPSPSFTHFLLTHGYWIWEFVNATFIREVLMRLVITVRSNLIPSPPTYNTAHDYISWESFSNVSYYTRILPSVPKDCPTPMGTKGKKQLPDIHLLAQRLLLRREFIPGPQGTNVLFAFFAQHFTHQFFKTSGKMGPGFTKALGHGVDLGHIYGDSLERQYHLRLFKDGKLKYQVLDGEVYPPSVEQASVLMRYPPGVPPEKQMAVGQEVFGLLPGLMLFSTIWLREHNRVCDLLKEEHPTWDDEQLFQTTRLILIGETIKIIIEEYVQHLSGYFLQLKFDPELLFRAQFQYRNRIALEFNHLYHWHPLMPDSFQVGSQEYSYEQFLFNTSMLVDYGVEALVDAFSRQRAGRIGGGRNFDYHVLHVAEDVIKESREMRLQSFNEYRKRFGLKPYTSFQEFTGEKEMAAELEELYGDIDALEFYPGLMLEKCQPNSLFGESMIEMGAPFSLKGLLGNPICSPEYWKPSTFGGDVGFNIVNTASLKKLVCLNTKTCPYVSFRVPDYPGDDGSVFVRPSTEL
Further: assay procedure not described here.

Sequence of Beta-1 adrenergic receptor (P08588 whole entry): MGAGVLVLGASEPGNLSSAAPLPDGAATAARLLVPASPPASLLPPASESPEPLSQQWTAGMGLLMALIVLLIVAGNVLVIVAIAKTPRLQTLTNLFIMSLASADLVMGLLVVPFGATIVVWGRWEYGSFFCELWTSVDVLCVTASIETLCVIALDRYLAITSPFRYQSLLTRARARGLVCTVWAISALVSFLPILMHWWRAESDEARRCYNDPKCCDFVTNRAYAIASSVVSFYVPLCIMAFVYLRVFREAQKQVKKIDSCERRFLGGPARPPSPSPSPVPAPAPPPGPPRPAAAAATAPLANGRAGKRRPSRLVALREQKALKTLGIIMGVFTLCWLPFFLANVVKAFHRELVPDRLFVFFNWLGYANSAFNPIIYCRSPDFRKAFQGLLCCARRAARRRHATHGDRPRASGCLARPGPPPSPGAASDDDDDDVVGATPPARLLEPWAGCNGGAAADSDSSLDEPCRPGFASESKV
Sequence of Melanocortin receptor 4 (P32245 whole entry): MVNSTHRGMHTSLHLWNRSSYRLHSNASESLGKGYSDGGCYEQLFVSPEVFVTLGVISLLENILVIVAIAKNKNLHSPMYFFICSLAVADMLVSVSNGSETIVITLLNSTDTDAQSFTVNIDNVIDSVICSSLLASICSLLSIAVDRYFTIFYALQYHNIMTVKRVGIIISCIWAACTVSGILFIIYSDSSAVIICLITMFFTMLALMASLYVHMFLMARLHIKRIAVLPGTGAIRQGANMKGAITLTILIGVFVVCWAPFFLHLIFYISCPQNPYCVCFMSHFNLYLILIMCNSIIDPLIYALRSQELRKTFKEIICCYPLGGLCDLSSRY
Sequence of Gamma-aminobutyric acid receptor subunit alpha-1 (P62813 whole entry): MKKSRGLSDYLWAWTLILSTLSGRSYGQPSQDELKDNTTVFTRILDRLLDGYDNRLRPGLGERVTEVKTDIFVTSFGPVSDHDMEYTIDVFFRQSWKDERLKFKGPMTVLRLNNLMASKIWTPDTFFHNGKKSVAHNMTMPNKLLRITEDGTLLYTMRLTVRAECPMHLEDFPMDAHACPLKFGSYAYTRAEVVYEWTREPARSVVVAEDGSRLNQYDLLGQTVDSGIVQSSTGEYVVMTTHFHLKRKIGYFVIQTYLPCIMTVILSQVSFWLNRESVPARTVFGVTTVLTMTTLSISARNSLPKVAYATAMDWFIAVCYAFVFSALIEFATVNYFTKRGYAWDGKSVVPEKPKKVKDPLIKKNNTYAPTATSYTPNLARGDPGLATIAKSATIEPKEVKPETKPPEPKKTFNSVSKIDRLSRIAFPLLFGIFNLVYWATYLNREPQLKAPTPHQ
Sequence of Melanocortin receptor 3 (P41968 whole entry): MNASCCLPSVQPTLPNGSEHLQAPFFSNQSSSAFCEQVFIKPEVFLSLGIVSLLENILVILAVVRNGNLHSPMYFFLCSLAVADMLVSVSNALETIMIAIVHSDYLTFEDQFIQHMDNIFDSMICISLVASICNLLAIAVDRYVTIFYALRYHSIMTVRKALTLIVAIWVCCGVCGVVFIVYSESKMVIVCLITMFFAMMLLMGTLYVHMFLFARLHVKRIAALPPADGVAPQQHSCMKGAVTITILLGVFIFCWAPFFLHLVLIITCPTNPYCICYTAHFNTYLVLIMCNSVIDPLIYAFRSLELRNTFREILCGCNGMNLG
Sequence of Sodium-dependent dopamine transporter (Q01959 whole entry): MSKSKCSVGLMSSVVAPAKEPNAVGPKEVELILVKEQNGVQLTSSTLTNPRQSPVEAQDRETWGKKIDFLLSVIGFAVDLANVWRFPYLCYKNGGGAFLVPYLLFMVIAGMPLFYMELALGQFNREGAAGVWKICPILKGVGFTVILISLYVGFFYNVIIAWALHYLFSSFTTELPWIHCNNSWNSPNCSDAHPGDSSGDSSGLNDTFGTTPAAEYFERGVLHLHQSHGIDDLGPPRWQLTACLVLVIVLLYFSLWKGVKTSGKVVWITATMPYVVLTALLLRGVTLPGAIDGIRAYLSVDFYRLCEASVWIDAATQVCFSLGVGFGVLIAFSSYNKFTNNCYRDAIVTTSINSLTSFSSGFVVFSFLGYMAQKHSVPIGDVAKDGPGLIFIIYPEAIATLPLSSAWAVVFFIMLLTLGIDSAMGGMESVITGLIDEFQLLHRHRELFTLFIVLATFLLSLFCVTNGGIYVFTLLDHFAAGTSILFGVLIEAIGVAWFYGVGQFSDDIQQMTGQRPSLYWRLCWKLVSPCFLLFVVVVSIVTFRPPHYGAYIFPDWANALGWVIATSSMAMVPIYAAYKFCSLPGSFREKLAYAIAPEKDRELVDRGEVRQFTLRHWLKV
Sequence of Neuronal acetylcholine receptor subunit alpha-4 (P43681 whole entry): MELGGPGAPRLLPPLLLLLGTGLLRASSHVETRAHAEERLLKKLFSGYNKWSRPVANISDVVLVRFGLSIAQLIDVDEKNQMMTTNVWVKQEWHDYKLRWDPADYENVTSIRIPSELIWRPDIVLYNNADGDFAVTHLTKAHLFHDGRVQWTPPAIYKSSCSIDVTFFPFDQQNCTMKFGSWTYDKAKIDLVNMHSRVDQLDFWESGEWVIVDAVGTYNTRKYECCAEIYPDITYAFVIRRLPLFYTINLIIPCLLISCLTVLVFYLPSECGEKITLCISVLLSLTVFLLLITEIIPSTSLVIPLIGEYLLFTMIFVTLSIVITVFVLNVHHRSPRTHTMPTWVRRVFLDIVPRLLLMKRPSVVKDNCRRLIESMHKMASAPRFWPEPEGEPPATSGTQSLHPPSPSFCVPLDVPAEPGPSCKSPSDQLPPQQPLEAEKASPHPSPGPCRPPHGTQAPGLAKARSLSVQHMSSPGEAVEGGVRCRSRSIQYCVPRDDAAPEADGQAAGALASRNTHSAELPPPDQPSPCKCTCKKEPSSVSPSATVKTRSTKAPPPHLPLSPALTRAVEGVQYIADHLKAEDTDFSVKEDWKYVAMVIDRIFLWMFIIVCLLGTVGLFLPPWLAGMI
Sequence of Cannabinoid receptor 1 (P21554 whole entry): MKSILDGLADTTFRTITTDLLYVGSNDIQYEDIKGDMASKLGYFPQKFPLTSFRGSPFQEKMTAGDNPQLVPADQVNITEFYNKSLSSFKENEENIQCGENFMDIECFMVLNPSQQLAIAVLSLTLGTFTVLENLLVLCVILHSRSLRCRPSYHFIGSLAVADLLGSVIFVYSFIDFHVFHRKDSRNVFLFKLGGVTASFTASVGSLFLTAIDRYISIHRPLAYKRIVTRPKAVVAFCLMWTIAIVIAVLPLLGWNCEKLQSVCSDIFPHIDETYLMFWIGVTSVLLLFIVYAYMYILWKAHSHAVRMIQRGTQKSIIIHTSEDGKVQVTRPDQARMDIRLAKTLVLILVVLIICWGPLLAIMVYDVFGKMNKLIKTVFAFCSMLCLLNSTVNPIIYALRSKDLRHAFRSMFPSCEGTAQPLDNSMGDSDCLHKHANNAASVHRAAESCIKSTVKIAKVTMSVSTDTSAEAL
Sequence of Growth hormone secretagogue receptor type 1 (Q92847 whole entry): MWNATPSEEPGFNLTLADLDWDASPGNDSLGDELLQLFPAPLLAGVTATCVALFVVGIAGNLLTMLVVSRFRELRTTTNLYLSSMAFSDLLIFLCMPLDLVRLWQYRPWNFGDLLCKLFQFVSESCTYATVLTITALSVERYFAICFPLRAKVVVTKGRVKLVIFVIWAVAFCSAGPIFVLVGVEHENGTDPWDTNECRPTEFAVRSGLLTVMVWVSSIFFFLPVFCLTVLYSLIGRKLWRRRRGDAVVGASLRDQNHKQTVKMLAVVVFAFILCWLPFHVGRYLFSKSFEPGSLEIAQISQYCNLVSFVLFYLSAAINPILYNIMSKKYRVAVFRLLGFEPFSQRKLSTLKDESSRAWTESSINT
Sequence of D(3) dopamine receptor (P35462 whole entry): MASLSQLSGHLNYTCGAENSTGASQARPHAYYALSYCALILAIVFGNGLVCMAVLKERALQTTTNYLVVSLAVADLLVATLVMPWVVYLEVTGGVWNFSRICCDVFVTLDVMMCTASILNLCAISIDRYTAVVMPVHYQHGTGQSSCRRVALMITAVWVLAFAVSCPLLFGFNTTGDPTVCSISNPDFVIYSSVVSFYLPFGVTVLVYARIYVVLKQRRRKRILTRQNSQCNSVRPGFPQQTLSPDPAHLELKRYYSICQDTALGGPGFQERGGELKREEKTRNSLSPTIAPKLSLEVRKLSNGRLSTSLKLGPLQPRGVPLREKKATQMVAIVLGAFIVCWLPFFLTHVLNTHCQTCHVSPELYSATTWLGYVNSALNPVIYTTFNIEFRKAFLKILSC

Row | SMILES | AC50 [1] | AC50 [2] | AC50 [3] | AC50 [4] | AC50 [5] | AC50 [6] | AC50 [7] | AC50 [8] | AC50 [9] | AC50 [10] | AC50 [11] | AC50 [12] | AC50 [13] | AC50 [14]
1 | O=C(/C=C/c1cccc(S(=O)(=O)Nc2ccccc2)c1)NO [BELINOSTAT] | > 10 µM | > 10 µM | > 10 µM | > 30 µM | > 30 µM | > 10 µM | > 30 µM | > 30 µM | > 30 µM | > 30 µM | > 10 µM | – | – | –
2 | O=C(O)COCCN1CCN(C(c2ccccc2)c2ccc(Cl)cc2)CC1 (stereo not drawn) [CETIRIZINE] | > 10 µM | > 10 µM | > 10 µM | – | > 30 µM | – | > 30 µM | > 30 µM | > 30 µM | > 30 µM | – | > 10 µM | > 30 µM | –
3 | CCC[C@@H]1C[C@@H](C(=O)N[C@@H]([C@H]2O[C@H](SC)[C@H](O)[C@@H](O)[C@H]2O)[C@@H](C)O)N(C)C1 [LINCOMYCIN] | > 10 µM | > 10 µM | > 10 µM | – | > 10 µM | > 10 µM | > 10 µM | > 30 µM | > 10 µM | > 10 µM | > 10 µM | > 30 µM | – | > 10 µM
4 | C=C1c2cccc(O)c2C(=O)C2=C(O)[C@]3(O)C(=O)C(C(N)=O)=C(O)[C@@H](N(C)C)[C@@H]3[C@@H](O)[C@H]12 [METHACYCLINE] | > 10 µM | > 30 µM | > 10 µM | – | > 30 µM | > 10 µM | > 30 µM | > 30 µM | > 30 µM | 41.5 µM | > 10 µM | > 10 µM | – | > 30 µM
5 | CN(Cc1cnc2nc(N)nc(N)c2n1)c1ccc(C(=O)N[C@@H](CCC(=O)O)C(=O)O)cc1 [METHOTREXATE] | > 10 µM | > 10 µM | > 10 µM | – | > 30 µM | > 10 µM | > 30 µM | > 30 µM | > 30 µM | > 30 µM | > 30 µM | > 10 µM | – | > 30 µM
6 | O=C(O)c1cccnc1Nc1cccc(C(F)(F)F)c1 [NIFLUMIC ACID] | > 10 µM | > 10 µM | > 10 µM | – | > 10 µM | > 10 µM | > 10 µM | > 30 µM | > 10 µM | > 10 µM | > 10 µM | > 10 µM | – | 30 µM
7 | O=C1c2cccc3c2[C@H](CCC3)CN1[C@@H]1CN2CCC1CC2 [PALONOSETRON] | > 30 µM | 38.5 µM | > 30 µM | – | > 30 µM | > 30 µM | > 30 µM | > 30 µM | > 30 µM | > 30 µM | > 30 µM | 25 µM | – | > 30 µM
8 | O=C1c2ccccc2C(=O)C1c1ccccc1 [PHENINDIONE] | > 10 µM | > 10 µM | > 10 µM | – | > 10 µM | > 10 µM | > 10 µM | > 30 µM | > 10 µM | > 10 µM | > 10 µM | > 10 µM | – | > 10 µM
9 | COC(=O)[C@H]1[C@H]2C[C@@H]3c4[nH]c5cc(OC)ccc5c4CCN3C[C@H]2C[C@@H](OC(=O)c2cc(OC)c(OC)c(OC)c2)[C@@H]1OC [RESERPINE] | > 10 µM | > 10 µM | > 10 µM | > 30 µM | – | > 10 µM | > 10 µM | > 30 µM | > 10 µM | > 10 µM | 13 µM | > 10 µM | > 30 µM | 18.8 µM
10 | C[C@]12C=CC(=O)C=C1CC[C@@H]1[C@@H]2CC[C@]2(C)OC(=O)CC[C@@H]12 [TESTOLACTONE] | > 10 µM | > 10 µM | > 10 µM | – | > 10 µM | > 10 µM | > 10 µM | > 30 µM | > 10 µM | > 10 µM | > 10 µM | > 30 µM | – | > 10 µM
